Assay results reported in EP0516082A2, “Gingerol and gingerdiol derivatives as hypocholesterolemic and antiatherosclerotic agents” (priority 1991, dated 1992).

Tests used:
LDL = experiment: Inhibition of LDL lipid peroxidation (cupric sulfate induced, thiobarbituric acid assay, method of Yagi et al.); format: biochemical; conditions: 250 µg LDL in 0.5 mL, cupric sulfate 18 µM, 37°C for 2.5 hours or 18 hours; for IC50: read-out: LDL Perox. IC₅₀; for LDL Perox. ID₅₀: dose required to inhibit 50% of LDL peroxidation
Protocol: (§1) Determine the degree of inhibition of LDL and plasma lipid peroxidation by [8]-gingerol and anti-[8]-gingerdiol by the method of Yagi et al. [Vitamins 39, 105 (1968)].
(§2) Incubate a 0.5 mL solution containing 250 micrograms (µg) of LDL or 0.1 mL of plasma with the test compound, in amounts varying from 0 to 250 µg, for 30 minutes at 24°C. To this mixture add 10 µL of a cupric sulfate solution (final concentration 18 µM in LDL assay, 2 mM in plasma assay) and incubate at 37°C for 2.5 hours or 18 hours. Determine the amount of peroxidation of LDL or plasma by the thiobarbituric acid assay. Calculate the dose of test compound required to inhibit 50% of LDL or plasma lipid peroxidation (ID₅₀) and the concentration of test compound required to inhibit 50% of LDL or plasma lipid peroxidation (IC₅₀).

plasma = experiment: Inhibition of plasma lipid peroxidation (cupric sulfate induced, thiobarbituric acid assay, method of Yagi et al.); format: biochemical; conditions: 0.1 mL of plasma, cupric sulfate 2 mM, 37°C for 2.5 hours or 18 hours; for IC50: read-out: Plas.Lipid Perox. IC₅₀; for Plas.Lipid Perox. ID₅₀: dose required to inhibit 50% of plasma lipid peroxidation
Protocol: as §1, §2

[1] = Effect on serum cholesterol in the cholesterol-fed rabbit; format: in vivo
Text: Feed rabbits with 1% cholesterol (w/w) in standard rabbit chow supplemented with (n=5) or without (n=8) 0.5% anti-[8]-gingerdiol (w/w). Each rabbit consumes 120 grams of food per day. Collect blood samples and determine cholesterol in freshly prepared serum using an enzymatic method described by Mao et al., Clin.Chem 29, 1890 (1983).

aortas = experiment: Antiatherogenic effect in the cholesterol-fed rabbit (Sudan IV stained aortic lesions); format: in vivo; conditions: rabbits fed 1% cholesterol chow with 0.5% (w/w) compound for 56 days, n=5
Text: Feed rabbits with 1% cholesterol (w/w) in standard rabbit chow supplemented with (n=5) or without (n=6) 0.5% anti-[8]-gingerdiol (w/w) for 56 days. Each rabbit consumes 120 grams of food per day. Immediately following sacrifice by intravenous injection of sodium pentobarbital, dissect the aortas from the ascending arch to the […] bifurcation.
Remove extraneous adipose tissue, open the aortas longitudinally and rinse several times with saline. Stain the aortas with Sudan IV and photograph using the method described by Mao et al. [J.Med.Chem. 34, 302 (1991)]. Digitize the areas of sudanophilic lesions in the thoracic region of the aorta with a Magiscan image analysis system. Distinguish stained versus unstained areas on the basis of Sudan Red staining. Quantitate the corresponding lesioned and unlesioned areas accordingly.

CCCCCCCC(O)CC(=O)CCc1ccc(O)c(OC)c1 (centres unmarked) [[8]-Gingerol, 1-(4'-Hydroxy-3'-methoxyphenyl)-5-hydroxy-3-dodecanone]
IC50 (LDL): 109 µM | LDL Perox. ID₅₀ (LDL): 60 nmol | IC50 (plasma): 8.3 µM | Plas.Lipid Perox. ID₅₀ (plasma): 5 nmol

CCCCCCCC(O)CC(O)CCc1ccc(O)c(OC)c1 (stereo not drawn) [anti-[8]-Gingerdiol, Anti-1-(4'-hydroxy-3'-methoxyphenyl)-3,5-dodecanediol]
IC50 (LDL): 72 µM | LDL Perox. ID₅₀ (LDL): 40 nmol | IC50 (plasma): 16.6 µM | Plas.Lipid Perox. ID₅₀ (plasma): 10 nmol | Cholesterol (mg/dL±SEM) Day 0 ([1]; Day 0 (baseline), rabbits fed 1% cholesterol chow with 0.5% (w/w) compound, n=5): 82 ± 12 mg/dL | Cholesterol (mg/dL±SEM) Day 10 ([1]; Day 10, rabbits fed 1% cholesterol chow with 0.5% (w/w) compound, n=5, control 790 ± 103): 515 ± 154 mg/dL | Cholesterol (mg/dL±SEM) Day 28 ([1]; Day 28, rabbits fed 1% cholesterol chow with 0.5% (w/w) compound, n=5, control 2177 ± 97): 1615 ± 216 mg/dL | % Lesions (±SEM) in Abdominal (aortas; abdominal aorta, control 28 ± 7): 24 ± 10% | % Lesions (±SEM) in Arch (aortas; aortic arch, control 83 ± 7): 73 ± 12% | % Lesions (±SEM) in Thoracic (aortas; thoracic aorta, control 62 ± 8): 38 ± 16%
